Here are results for two molecules from patent US20250313528A1, “NOVEL COMPOUND AND PHARMACEUTICAL COMPOSITION FOR PREVENTING OR TREATING PULMONARY FIBROSIS COMPRISING SAME AS ACTIVE INGREDIENT” (GIL MEDICAL CENTER, priority 2022, published 2025).

Experiment [1] relates to DHLF-IPF cells. Description: Transwell migration assay, DHLF-IPF. The class given is cell-based, human. As to conditions: inherent high migration, 24 hours, FIG. 5. As for the experimental part: (§1) In accordance with the characteristics of myofibroblasts, in which the increased expression of proteins related to fibrogenesis leads to an increase of cell migration and invasion, migration and wound healing assays were conducted to examine the effects of the final selected Compound 1 and Compound 2 on cell migration using normal and diseased fibroblasts.
(§2) A 24-well culture plate was prepared with 500 μL of medium including FBS, and an 8 μm pore size insert was placed on top. Inside the insert, 300 μL of medium without FBS was added, and MRC-5 and DHLF-IPF cells were seeded at a density of 1×10^5 cells. […] After incubation, the medium inside the 8 μm pore polycarbonate membrane insert was carefully removed, washed with DPBS, and fixed in methanol for 5 minutes. The cells were then stained with Mayer's Haematoxylin for 8 minutes after washing twice with triple-distilled water. The stained cells were washed with DPBS, gently wiped with a cotton swab inside the insert, and the membrane was cut out and mounted on a slide. The migrated cells were counted under a microscope at 200× magnification.

A further experiment deals with FN, COL1A1, and α-SMA. Kind of experiment: qRT-PCR of fibrosis-related genes in TGF-β1-induced MRC-5 cells. As to conditions: MRC-5, 10 μM pretreatment 1 hour, TGF-β1 1 ng/ml 48 hours, FIG. 4c/4d. The class given is cell-based, human. On the procedure: MRC-5 and DHLF-IPF cells were each cultured in growth medium, and the medium was removed. […] The medium was then removed, and the cells were washed once with PBS. Intracellular total RNA was extracted from the cultured cells using TRIzol reagent (TaKaRa Bio Inc., Japan) for gene expression analysis. 1 mL of TRIzol reagent was added to lyse the cells and denature the tissue. The lysate was transferred to each 1.5 mL tube, and 200 μL of chloroform was added thereto, followed by vortexing for 20 seconds to ensure complete mixing. After incubating at room temperature for 15 minutes, the mixture was centrifuged at 14,000 rpm for 20 minutes to obtain the supernatant. After adding an equal volume of isopropyl alcohol, the tubes were inverted and incubated at room temperature for 10 minutes. The sample was centrifuged at 14,000 rpm for 15 minutes to obtain an RNA pellet, which was washed by centrifugation with 70% ethanol for use on RNA at 14,000 rpm for 5 minutes, and dried for 5 minutes. The dried RNA sample was added with 20 μL of distilled water treated with 0.1% diethyl pyrocarbonate (DEPC) to dissolve the pallet and the resultant was used as a sample for cDNA synthesis. 1 μL of the same was used to measure the RNA concentration and purity at O.D. 260/280 nm using a Nanodrop.
Single-stranded cDNA synthesis was performed by mixing 1 μg of the extracted total RNA with 1 μL of oligo-d(T) primer ([…]) and 10 mM dNTP (TaKaRa Bio Inc., Japan), reacting at 65° C. for 5 minutes, followed by rapid cooling. To this template, 4 μL of 5×RT buffer, 0.5 μL of RNA inhibitor, and 100 units of RTase (TaKaRa Bio Inc., Japan) were added, and the total volume was adjusted to 20 μL using DEPC-treated distilled water. […]
Each gene expression level was measured using real-time PCR. […] The specificity of the amplified product was confirmed through melting curve analysis, and the target genes were quantified and compared using GAPDH as a control gene.
(In general: Real-time PCR tracks product formation cycle by cycle.)

Experiment [2] deals with MRC-5 cells. Kind of experiment: Wound healing assay, MRC-5. The class given is cell-based, human. Particulars: MRC-5, TGF-β1 treatment, 24 hours, FIG. 6. As for the experimental part:
The effects of Compound 1 and Compound 2, selected in Example 3, on cell migration (wound healing) in MRC-5 and DHLF-IPF cells were examined.
Specifically, cells (1×10^5 cells/well) were seeded in a 60 mm dish to achieve approximately 90% confluency and cultured for 24 hours. Subsequently, a straight line was scratched on the bottom with a 200 μL pipette tip, and the detached cells were removed by washing once with Dulbecco's Phosphate-Buffered Saline (DPBS). The wound was photographed under a microscope, and treatments with TGF-β1 alone, TGF-β1+SFN, TGF-β1+GSF-016, and TGF-1+GSF-018 were applied and cultured for approximately 24 hours, after which the wound was re-photographed. The images taken at 24 hours of culture were analyzed using the Image J (Fiji package) software to measure the distance between cells, and the relative migration was expressed as a percentage (%) compared to the control group.

The test system of experiment [3] is MRC-5 cells. Kind of experiment: Transwell migration assay, MRC-5. As to conditions: MRC-5, TGF-β1 treatment, 24 hours, FIG. 5. The class given is cell-based, human. As for the experimental part:
as §1, §2

The test system of experiment [4] is DHLF-IPF cells. Kind of experiment: Microscopic examination of cell morphology and proliferation, TGF-β1-induced DHLF-IPF. Particulars: microscope, FIG. 4a. The class given is cell-based, human. On the procedure:
The effects of the two candidate compounds of sulforaphane prodrugs on cytotoxicity and morphological changes in normal lung fibroblast MRC-5 cells and diseased lung fibroblast DHLF-IPF cells were examined. The diseased lung fibroblast DHLF-IPF cell line was purchased from Lonza and cultured in FGM™-2 Fibroblast Growth Medium-2 BulletKit™ at 37° C. in a 5% CO2 incubator.
Additionally, the changes in cell morphology of two lung fibroblasts induced by TGF-β1 according to the treatments with Compound 1 and Compound 2 were examined with the naked eye through a microscope.

The subject of experiment [5] is bleomycin (BLM)-induced pulmonary fibrosis animal models. Description: Hydroxyproline quantification in lung tissue of BLM model. The experiment is classed as in vivo, C57BL/6N mice. As to conditions: BLM mice, compared to the BLM group. On the procedure:
Specifically, 7-week-old C57BL/6N mice were exposed to BLM (3-5 units/kg) via the airway. The compounds were administered orally at doses of 200 μg/kg and 500 μg/kg for Compound 1, and 100 μg/kg and 200 μg/kg for Compound 2, three times a week for three weeks starting the day after BLM exposure. Body weight gain was periodically measured during the experimental period, and lung weight was measured at the end of the experiment.
Specifically, homogenized lung tissue was placed in 1.5 mL tubes in similar amounts to prevent thawing, and 100 μL of 12 M hydrochloric acid was added for hydrolysis at 120° C. for 3 hours. After centrifugation at 10,000×g for 5 minutes, the supernatant was transferred to a new tube, and 10 μL of the sample was transferred to a 96-well plate and evaporated at 60° C. Subsequently, 100 μL of chloramine T reagent/oxidation buffer mixture was added to each well, followed by 100 μL of para-dimethylaminobenzaldehyde reagent, and reacted at 60° C. for 90 minutes. Absorbance was measured at 540 nm, and the content was determined using a standard calibration curve prepared in the same manner.

Molecules are shown by their SMILES.

Consider `CCOC(=O)C(CSC(=S)NCCCC[S+](C)[O-])NC(C)=O` (stereo not drawn) [Compound 1], for which the “cell migration (transwell)” value in the experiment on DHLF-IPF cells [1] is reported as “significantly inhibited in a dose-dependent manner”. Besides, the “gene expression levels of FN, COL1A1, and α-SMA” value in the experiment on FN, COL1A1, and α-SMA is “significantly reducing the expression levels compared to sulforaphane”. For the same molecule, the “cell migration (wound healing)” value in the experiment with MRC-5 cells [2] is “significantly inhibited in a dose-dependent manner”. Also, the “cell migration (transwell)” value in the experiment on MRC-5 cells [3] is “significantly inhibited in a dose-dependent manner”. Besides, in the experiment on DHLF-IPF cells [4], the cell morphology entry was “thin and elongated shape, which is similar to that of the control group”; the “inhibition of cell proliferation compared to sulforaphane-treated group” value is on record as “inhibition of cell proliferation was more significant”. The “hydroxyproline content in lung tissue” value in experiment [5] (200 μg/kg orally) is “reduced”.

`C=CCOC(=O)C(CSC(=S)NCCCC[S+](C)[O-])NC(C)=O` (stereo not drawn) [Compound 2]: the “cell migration (transwell)” value with DHLF-IPF cells [1] and in the experiment on MRC-5 cells [3] was “significantly inhibited in a dose-dependent manner” throughout. The “gene expression levels of FN, COL1A1, and α-SMA” value in the experiment with FN, COL1A1, and α-SMA is listed as “significantly reducing the expression levels compared to sulforaphane”. Further, in the experiment on MRC-5 cells [2], the “cell migration (wound healing)” value is recorded as “significantly inhibited in a dose-dependent manner”. The cell morphology result in the experiment with DHLF-IPF cells [4] was “thin and elongated shape, which is similar to that of the control group”. In addition, in the experiment on DHLF-IPF cells [4], the “inhibition of cell proliferation compared to sulforaphane-treated group” value was “inhibition of cell proliferation was more significant”. The “hydroxyproline content in lung tissue” value in experiment [5] (100 μg/kg orally) and in experiment [5] (200 μg/kg orally) was “significant reductions” each time.
